The subject of one test is MV4-11 cells. Nature of the test: Leukemia cell proliferation inhibition test (ATPlite), MV4-11. The class given is cell-based. The note with it: read-out: MV4-11 cell proliferation inhibition effect. Summed up: (§1)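 Molm-13 or MV4-11 cells at 10,000 cells/well in RPMI with 10% FBS and pen/strep were exposed to serially diluted compound for 72 h at 37 °C, 5% CO2. Total cellular ATP was read by luciferase luminescence. GI50 was taken relative to 0.1% DMSO control, from duplicates by sigmoid non-linear regression.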
Background: In ATP-based viability assays light output follows the ATP content of the culture.

Test [1] concerns the target T1, human FLT3 protein (FLT3 (WT)) (Homo sapiens, UniProt P36888).
T1 construct: human FLT3 protein (intracellular region, 564 to 993 aa); GST; purchased Carna Biosciences; host or cells: baculovirus expression system
T1 sequence (P36888 564-993): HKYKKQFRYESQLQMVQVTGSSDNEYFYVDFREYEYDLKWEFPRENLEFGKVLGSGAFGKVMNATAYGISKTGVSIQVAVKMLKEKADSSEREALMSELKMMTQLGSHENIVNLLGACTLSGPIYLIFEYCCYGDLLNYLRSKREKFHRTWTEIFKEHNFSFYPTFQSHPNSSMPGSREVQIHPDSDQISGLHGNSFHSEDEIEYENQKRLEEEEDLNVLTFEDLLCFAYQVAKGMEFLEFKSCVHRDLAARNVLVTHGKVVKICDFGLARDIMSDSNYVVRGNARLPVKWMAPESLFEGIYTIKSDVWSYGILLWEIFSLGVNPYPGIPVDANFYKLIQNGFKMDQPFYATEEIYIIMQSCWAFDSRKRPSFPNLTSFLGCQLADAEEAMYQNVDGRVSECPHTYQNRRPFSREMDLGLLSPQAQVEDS
Nature of the test: FLT3 inhibition test (FLT3 enzyme inhibition, time-resolved fluorescence of substrate peptide phosphorylation). The class given is biochemical. The note with it: read-out: FLT3 (WT) enzyme inhibition activity. The method, boiled down: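 Substrate peptide phosphorylation detected by time-resolved fluorescence after a 30 min kinase reaction at 25° C with 50 μM ATP (final). Beforehand, compound and FLT3 (WT, 1.2 μg) stood 15 min at 25° C in HEPES buffer pH 7.5 containing MgCl2, NaCl, BSA and DTT.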

The subject of the next test is Molm-13 cells. In words: Leukemia cell proliferation inhibition test (ATPlite), Molm-13. The class given is cell-based. The note with it: read-out: MOLM13 cell proliferation inhibition effect. Summed up: as §1
[2] abbreviates: Homo sapiens, MV4-11, 72 h, MV4-11, 72 hours culture, ATPlite, GI50 per method.
The mark [3] stands for this setting: GST-fused human FLT3 (564 to 993 aa), ATP 50 μM.
Setting [4] is: Homo sapiens, MOLM-13, 72 h, Molm-13, 72 hours culture, ATPlite, GI50 per method.
The mark [5] stands for this setting: Homo sapiens, MV4-11, MV4-11 cell.
Where [6] appears, read: Homo sapiens, MOLM-13, MOLM13 cell.

Where two headings read alike, the source gives them in different places. A value given as a limit tells only on which side of the number the result lay.

Consider `CCCNc1nc(Nc2ccc(C(N)=O)cc2)ncc1C(=O)Nc1ccc(NC(=O)/C=C/CN(C)C)cc1` [Compound 3-6], for which the IC50 with MV4-11 cells (setting [2]) is 100 to 1000 nM; in test [1] (setting [3]), under 10 nM; in the test with Molm-13 cells (setting [4]), over 1000 nM.

On to `CCCNc1nc(Nc2cccc(F)c2)ncc1C#CCCCNC(=O)[C@H](CC)N(C)C(=O)/C=C/CN(C)C` [Compound 7-17], for which the IC50 (in the test with MV4-11 cells (setting [2]); in test [1] (setting [3]); with Molm-13 cells (setting [4])) was under 10 nM in each case.

As for `CCCNc1nc(Nc2ccc3c(c2)c(OC)nn3C)ncc1C#CCCCNC(=O)[C@H](C)N(C)C(=O)/C=C/CN(C)C` [Compound 22-25], the IC50 (with MV4-11 cells (setting [5]); in test [1] (FLT3 (WT)); in the test with Molm-13 cells (setting [6])) was under 10 nM each time.

Regarding `CCCNc1nc(Nc2ccc3cnccc3c2)ncc1C(=O)NCCCNC(=O)[C@H](C)N(C)C(=O)/C=C/CN(C)C` [Compound 6-8], the IC50 (in the test with MV4-11 cells (setting [2]); in test [1] (setting [3]); in the test on Molm-13 cells (setting [4])) was under 10 nM each time.

With `CCCNc1nc(Nc2ccc3[nH]nc(OC)c3c2)ncc1C#CCCCNC(=O)[C@H](C)N(C)C(=O)/C=C/CN(C)C` [Compound 22-64], the IC50 (in the test with MV4-11 cells (setting [5]); in test [1] (FLT3 (WT)); in the test with Molm-13 cells (setting [6])) was under 10 nM each time.

Regarding `CCCNc1nc(NCCc2ccncc2)ncc1C(=O)Nc1ccc(OC)c(NC(=O)CN(C)C(=O)/C=C/CN(C)C)c1` [Compound 1-10], the IC50 (in the test on MV4-11 cells (setting [2]); in test [1] (setting [3]); in the test with Molm-13 cells (setting [4])) was under 10 nM each time.

`CCCNc1nc(Nc2ccc(F)cc2)ncc1C#CCCCNC(=O)[C@H](C)N(C)C(=O)/C=C/CN(C)C` [Compound 12-3]: the IC50 (with MV4-11 cells (setting [2]); in test [1] (setting [3]); with Molm-13 cells (setting [4])) was under 10 nM in each case.

`CN(C)C/C=C/C(=O)N(C)CC(=O)NCCCC#Cc1cnc(Nc2ccc(F)nc2)nc1NCC(F)(F)F` [Compound 10-36]: the IC50 (with MV4-11 cells (setting [2]); in test [1] (setting [3]); in the test on Molm-13 cells (setting [4])) was under 10 nM throughout.

For `CCCNc1nc(Nc2ccc(F)nc2)ncc1C#CCCCNC(=O)[C@H](C)N(C)C(=O)/C=C/CN(C)C` [Compound 7-21, (S,E)-4-(Dimethylamino)-N-(1-((5-(2-((6-fluoropyridin-3-yl)amino)-4-(propylamino)pyrimidin-5-yl)-4-pentyn-1-yl)amino)-1-oxopropan-2-yl)-N-methyl-2-butenamide], the IC50 (with MV4-11 cells (setting [2]); in test [1] (setting [3]); with Molm-13 cells (setting [4])) was under 10 nM throughout.

Consider `COCCCNc1nc(Nc2ccc(F)cc2)ncc1C#CCCCNC(=O)CN(C)C(=O)/C=C/CN(C)C` [Compound 10-27], for which the IC50 (in the test with MV4-11 cells (setting [2]); in test [1] (setting [3]); in the test on Molm-13 cells (setting [4])) was under 10 nM in each case.

Take `C[C@@H](C(=O)Nc1cccc(C#Cc2cnc(Nc3ccc(C#N)cc3)nc2NC2CC2)n1)N(C)C(=O)/C=C/CN(C)C` [Compound 8-18]: the IC50 in the test on MV4-11 cells (setting [2]) was 10 to 100 nM; in test [1] (setting [3]) it was under 10 nM; with Molm-13 cells (setting [4]), 10 to 100 nM.

For `CCCNc1nc(Nc2cccc(-n3ccnn3)c2)ncc1C#CCCCNC(=O)[C@H](C)N(C)C(=O)/C=C/CN(C)C` [Compound 22-20], the IC50 (in the test with MV4-11 cells (setting [5]); in test [1] (FLT3 (WT)); in the test on Molm-13 cells (setting [6])) was under 10 nM each time.

As for `CCCNc1nc(Nc2ccc(C#N)cc2)ncc1C#CCCCNC(=O)[C@@H]1CCN1C(=O)/C=C/CN(C)C` [Compound 7-52], the IC50 (in the test on MV4-11 cells (setting [2]); in test [1] (setting [3]); in the test on Molm-13 cells (setting [4])) was under 10 nM in each case.

As for `CCCNc1nc(NC(=O)Nc2ccncc2)ncc1C(=O)Nc1cccc(NC(=O)[C@H](C)NC(=O)/C=C/CN(C)C)c1` [Compound 6-15], the IC50 was 100 to 1000 nM in the test on MV4-11 cells (setting [2]), under 10 nM in test [1] (setting [3]) and 100 to 1000 nM with Molm-13 cells (setting [4]).

Take `CCCNc1nc(Nc2ccc(C(N)=O)cc2)ncc1C(=O)N[C@@H]1CCC[C@H](Nc2ccccc2NC(=O)/C=C/CN(C)C)C1` [Compound 3-28]: the IC50 in the test with MV4-11 cells (MV4-11, 72 hours culture, ATPlite, GI50 per method) is 100 to 1000 nM; in test [1] (setting [3]) it was under 10 nM; with Molm-13 cells (Molm-13, 72 hours culture, ATPlite, GI50 per method) it was 100 to 1000 nM.

As to `CCCNc1nc(Nc2cnc(N3CCOCC3)c(F)c2)ncc1C#CCCCNC(=O)[C@H](C)N(C)C(=O)/C=C/CN(C)C` [Compound 21-8], the IC50 (with MV4-11 cells (setting [2]); in test [1] (setting [3]); in the test on Molm-13 cells (setting [4])) was 10 to 100 nM each time.

As for `CCCNc1nc(Nc2ccc(C#N)cc2)nc(C)c1C#CCCCNC(=O)[C@H](C)N(C)C(=O)/C=C/CN(C)C` [Compound 19-1, (S,E)-N-(1-((5-(2-((4-cyanophenyl)amino)-4-methyl-6-(propylamino)pyrimidin-5-yl)-4-pentyn-1-yl)amino)-1-oxopropan-2-yl)-4-(dimethylamino)-N-methyl-2-butenamide], the results for the IC50 (in the test with MV4-11 cells (setting [2]); in test [1] (setting [3]); with Molm-13 cells (setting [4])) were 100 to 1000 nM, under 10 nM and 100 to 1000 nM, respectively.

Consider `CNc1nc(Nc2cccc(F)c2)ncc1C#Cc1cccc(NC(=O)CN(C)C(=O)/C=C/CN(C)C)c1` [Compound 8-23], for which the figures for the IC50 (in the test on MV4-11 cells (setting [2]); in test [1] (setting [3]); in the test with Molm-13 cells (setting [4])) were 10 to 100 nM, under 10 nM and 10 to 100 nM, respectively.

Regarding `C=CC(=O)N[C@@H](C)C(=O)Nc1cccc(NC(=O)c2cnc(NCCc3ccncc3)nc2NCCC)c1` [Compound 1-1, (S)—N-(3-(2-(acrylylamido)propanamido)phenyl)-4-(propylamino)-2-((2-(pyridin-4-yl)ethyl)amino)pyrimidine-5-carboxamide], the IC50 with MV4-11 cells (setting [2]) was 10 to 100 nM; in test [1] (setting [3]), under 10 nM; in the test on Molm-13 cells (setting [4]), 10 to 100 nM.

In the case of `C[C@@H](C(=O)NCCCC#Cc1cnc(Nc2cccc(F)c2)nc1NCCCF)N(C)C(=O)/C=C/CN(C)C` [Compound 7-31], the IC50 (with MV4-11 cells (setting [2]); in test [1] (setting [3]); in the test on Molm-13 cells (setting [4])) was under 10 nM throughout.

`C=CC(=O)NCC(=O)NCCCNC(=O)c1cnc(Nc2ccc3cnccc3c2)nc1NCCC` [Compound 6-5]: the IC50 in the test on MV4-11 cells (setting [2]) is 10 to 100 nM; in test [1] (setting [3]), under 10 nM; with Molm-13 cells (setting [4]), 10 to 100 nM.

In the case of `CNc1nc(Nc2ccc(F)cc2)ncc1C#CCCCNC(=O)[C@H](C)N(C)C(=O)/C=C/CN(C)C` [Compound 21-51], the IC50 (with MV4-11 cells (setting [5]); in test [1] (FLT3 (WT)); in the test with Molm-13 cells (setting [6])) was under 10 nM each time.

With `CCCNc1nc(Nc2ccccc2F)ncc1C#CCCCNC(=O)[C@H](C)N(C)C(=O)/C=C/CN(C)C` [Compound 12-10], the IC50 was 10 to 100 nM in the test on MV4-11 cells (setting [2]), under 10 nM in test [1] (setting [3]) and 100 to 1000 nM in the test with Molm-13 cells (setting [4]).

As for `CCCNc1nc(Nc2ccc(C(=O)N(C)C)cc2)ncc1C#CCCCNC(=O)[C@H](C)N(C)C(=O)/C=C/CN(C)C` [Compound 7-15], the IC50 in the test on MV4-11 cells (setting [2]) was under 10 nM; in test [1] (setting [3]), 10 to 100 nM; in the test with Molm-13 cells (setting [4]), under 10 nM.

Turning to `CCCNc1nc(Nc2cccc(F)c2)ncc1C#CCCCNC(=O)[C@@H]1CC(F)(F)CN1C(=O)/C=C/CN(C)C` [Compound 7-53], the figures for the IC50 (in the test with MV4-11 cells (setting [2]); in test [1] (setting [3]); in the test with Molm-13 cells (setting [4])) were under 10 nM, 10 to 100 nM and under 10 nM, respectively.

Regarding `C[C@@H](C(=O)NCCCC#Cc1cnc(Nc2ccc(C(N)=O)cc2)nc1N1CCCC1)N(C)C(=O)/C=C/CN(C)C` [Compound 9-7], the IC50 (in the test on MV4-11 cells (setting [2]); in test [1] (setting [3]); in the test on Molm-13 cells (setting [4])) was under 10 nM in each case.

`CCCNc1nc(Nc2cccc(F)c2)ncc1C#CCCCNC(=O)[C@H](CC(C)C)N(C)C(=O)/C=C/CN(C)C` [Compound 7-11]: the results for the IC50 (in the test on MV4-11 cells (setting [2]); in test [1] (setting [3]); in the test with Molm-13 cells (setting [4])) were 10 to 100 nM, under 10 nM and 10 to 100 nM, respectively.

With `C=CC(=O)Nc1cc(NC(=O)c2cnc(NCCc3ccncc3)nc2NCCC)cc(C(F)(F)F)c1` [Compound 2-28], the IC50 (in the test with MV4-11 cells (setting [2]); in test [1] (setting [3]); with Molm-13 cells (setting [4])) was 100 to 1000 nM each time.

Turning to `CCCNc1nc(Nc2cncc(F)c2)ncc1C#CC(C)(C)CCNC(=O)[C@H](C)N(C)C(=O)/C=C/CN(C)C` [Compound 9-21], the IC50 with MV4-11 cells (setting [2]) is under 10 nM; in test [1] (setting [3]) it was under 10 nM; in the test on Molm-13 cells (setting [4]), 10 to 100 nM.

`C[C@@H](C(=O)NCCCC#Cc1cnc(Nc2cccc(F)c2)nc1Nc1ccc(C#N)cc1)N(C)C(=O)/C=C/CN(C)C` [Compound 7-14]: the values for the IC50 (with MV4-11 cells (setting [2]); in test [1] (setting [3]); in the test with Molm-13 cells (setting [4])) were under 10 nM, under 10 nM and 10 to 100 nM, respectively.

For `CCCNc1nc(Nc2cccc(F)c2)ncc1C#CC(C)(C)CCNC(=O)[C@H](C)N(C)C(=O)/C=C/CN(C)C` [Compound 7-28], the IC50 (in the test on MV4-11 cells (setting [2]); in test [1] (setting [3]); with Molm-13 cells (setting [4])) was under 10 nM each time.

(Values after patent US9145415B2, “Nitrogen-containing heterocyclic compound or salt thereof” (FUJIFILM Corporation, priority 2012, dated 2015).)
